Measurements from US5932548A, “Lysine containing peptides for treatment of heart disease” (priority 1998, dated 1999).
Non-standard residues stand in square brackets, D forms with d. Residues, ends and D or L forms follow the SMILES beside them. dTrp(2-Me) = Cc1[nH]c2ccccc2c1C[C@@H](N)C(=O)O

Columns and labels:
[1] = tested on: rats; experiment: GH releasing effect in rats; assay type: in vivo, rat
Procedure: (§1) In the examples that follow, data is presented for the most preferred lysine containing peptides of the invention. The GH releasing effect was measured in rats according to the method described by R. Deghenghi et al., Life Sci. 54: 1321-1328 (1994). The cardiac protection of the instant peptides has been measured essentially as described in the above cited publication by V. De Gennaro Colonna et al., Europ. J. Pharmacol. 334:201-207 (1997).

[2] = tested on: isolated rat hearts; experiment: coronary perfusion pressure (CPP) in isolated rat hearts; conditions: versus saline treatment (no peptide)
Procedure: as §1
The effects on coronary perfusion pressure ("CPP") in isolated rat hearts have been measured using Hexarelin (His-D-Mrp-Ala-Trp-D-Phe-Lys-NH2) as reference compound and compared to that for the GH antagonist His-D-Mrp-D-Lys-Trp-D-Phe-Lys-NH2. An increase of CPP over a saline treatment (i.e., no peptide) of 110±10% was found for Hexarelin, but an increase of 160±25% was found for the antagonist.

[3] = tested on: growth hormone deficient rats; conditions: De Gennaro Colonna et al. 1997; cited from earlier work

## His-D-Mrp-D-Lys-Trp-D-Phe-Lys-NH2
[1]
  GH liberation: does not liberate GH
[2]
  increase of CPP over a saline treatment: 160±25%

## Cc1[nH]c2ccccc2c1C[C@@H](NC(=O)[C@@H](N)Cc1cnc[nH]1)C(=O)N[C@@H](C)C(=O)N[C@@H](Cc1c[nH]c2ccccc12)C(=O)N[C@H](Cc1ccccc1)C(=O)N[C@@H](CCCCN)C(N)=O [Hexarelin, His-D-Mrp-Ala-Trp-D-Phe-Lys-NH2] (H-H[dTrp(2-Me)]AW[dF]K-NH2)
[2]
  increase of CPP over a saline treatment: 110±10%
[3]
  effect on cardiac dysfunction: reverse the worsening of cardiac dysfunction
